Measurements reported in patent US20230002377A1, “THERAPEUTIC COMBINATIONS OF DRUGS AND METHODS OF USING THEM” (HARMONY BIOSCIENCES, LLC, priority 2020, published 2023).

Key:
[1] = molecular target: Transporter, Dopamine (DAT) (Homo sapiens, UniProt Q01959); assay: DAT radioligand binding ([125I] RTI-55), Eurofins; settings: read-out: DAT, % inhibition, 100 nM compound
Description: Source: Human recombinant CHO—S cells;
Incubation Time/Temp: 3 hours @ 4° C.;
(§2) Incubation Buffer: 50 mM Tris-HCl, pH 7.4, 100 mM NaCl, 1 μM Leupeptin, 10 μM PMSF;
Non-Specific Ligand: 10.0 μM Nomifensine;
Specific Binding: 90% (Historical Values);
(§3) Quantitation Method: Radioligand Binding;

[2] = molecular target: Transporter, Norepinephrine (NET) (Homo sapiens, UniProt P23975); assay: NET radioligand binding ([125I] RTI-55), Eurofins; settings: for inhibition at 0.01 µM: read-out: NET, % inhibition, 10 nM compound; for inhibition at 0.1 µM: read-out: NET, % inhibition, 100 nM compound
Description: Source: Human recombinant MDCK cells;
Incubation Time/Temp: 3 hours @ 4° C.;
as §2
Non-Specific Ligand: 10.0 μM Desipramine;
as §3

[3] = Metabolite level of Formula II in phase I clinical trial; format: in vivo, human; settings: healthy volunteers
Description: (§1) By substituting the hydrogens with deuterium on the carbon(s) adjacent to the nitrogen which is acetylated (see for example, Examples 5 to 7), acetylation process can be slowed down to reduce the formation of this metabolite.

MCHR1 = MCHR1 (Homo sapiens, UniProt Q99705); assay: Contribution of N-acetyl metabolite to MCHR1 antagonism
Description: as §1

DAT = molecular target: T1, DAT (Homo sapiens, UniProt Q01959); settings: approved monoamine reuptake inhibitors at efficacious doses, cited from earlier work
T1 construct: host or cells: living brain (PET)

NET = NET (Homo sapiens, UniProt P23975); settings: at efficacious doses; cited from earlier work
PWS patients = settings: standard mg/day dosing, cited from earlier work

Sequence of Transporter, Norepinephrine (NET) (P23975 whole entry): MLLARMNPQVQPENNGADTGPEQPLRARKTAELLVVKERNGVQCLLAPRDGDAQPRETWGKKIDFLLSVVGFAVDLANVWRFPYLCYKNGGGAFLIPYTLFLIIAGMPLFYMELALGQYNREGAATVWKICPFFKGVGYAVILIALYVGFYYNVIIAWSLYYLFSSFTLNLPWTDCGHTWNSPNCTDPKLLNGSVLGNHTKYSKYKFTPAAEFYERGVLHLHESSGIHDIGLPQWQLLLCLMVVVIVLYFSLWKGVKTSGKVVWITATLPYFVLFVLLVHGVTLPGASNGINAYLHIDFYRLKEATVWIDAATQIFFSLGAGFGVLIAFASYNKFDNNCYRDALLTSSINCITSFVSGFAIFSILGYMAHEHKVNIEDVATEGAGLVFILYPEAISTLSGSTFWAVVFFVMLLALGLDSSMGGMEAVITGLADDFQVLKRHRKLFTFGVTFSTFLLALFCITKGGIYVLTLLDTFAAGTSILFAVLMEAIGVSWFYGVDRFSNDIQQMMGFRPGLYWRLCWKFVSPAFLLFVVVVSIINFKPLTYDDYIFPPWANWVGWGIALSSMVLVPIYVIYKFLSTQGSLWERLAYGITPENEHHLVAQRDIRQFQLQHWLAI
Sequence of Transporter, Dopamine (DAT) (Q01959 whole entry): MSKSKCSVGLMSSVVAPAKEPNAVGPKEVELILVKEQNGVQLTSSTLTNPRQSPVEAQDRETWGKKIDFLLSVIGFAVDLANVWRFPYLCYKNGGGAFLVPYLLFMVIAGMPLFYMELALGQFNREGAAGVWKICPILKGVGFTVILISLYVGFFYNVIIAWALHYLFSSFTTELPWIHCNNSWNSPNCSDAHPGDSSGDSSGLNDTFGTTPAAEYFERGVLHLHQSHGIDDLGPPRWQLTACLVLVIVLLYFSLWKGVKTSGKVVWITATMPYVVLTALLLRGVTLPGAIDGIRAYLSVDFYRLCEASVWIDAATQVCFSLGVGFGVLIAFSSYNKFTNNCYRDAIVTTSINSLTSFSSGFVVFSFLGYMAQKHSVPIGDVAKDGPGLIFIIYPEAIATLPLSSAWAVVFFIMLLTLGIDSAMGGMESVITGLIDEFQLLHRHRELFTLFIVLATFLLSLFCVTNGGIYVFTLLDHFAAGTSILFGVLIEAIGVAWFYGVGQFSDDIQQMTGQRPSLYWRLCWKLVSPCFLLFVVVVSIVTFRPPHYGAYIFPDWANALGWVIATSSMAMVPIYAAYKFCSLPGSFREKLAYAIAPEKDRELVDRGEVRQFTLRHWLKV
T1 sequence (Q01959 whole entry): as above
Sequence of NET (P23975 whole entry): as the sequence (P23975 whole entry) above
Sequence of MCHR1 (Q99705 whole entry, species assumed): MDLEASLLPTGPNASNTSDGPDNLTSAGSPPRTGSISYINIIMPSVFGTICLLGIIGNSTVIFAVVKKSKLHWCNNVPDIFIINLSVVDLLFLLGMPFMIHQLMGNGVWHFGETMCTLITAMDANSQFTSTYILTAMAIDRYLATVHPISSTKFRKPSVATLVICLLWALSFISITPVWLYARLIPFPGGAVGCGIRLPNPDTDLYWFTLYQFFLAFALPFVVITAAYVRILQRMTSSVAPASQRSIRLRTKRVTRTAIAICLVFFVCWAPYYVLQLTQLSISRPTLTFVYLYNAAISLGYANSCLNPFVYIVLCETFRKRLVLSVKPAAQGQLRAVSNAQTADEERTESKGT

[2H]C1([2H])NC([2H])([2H])C([2H])(c2ccc(Cl)c(Cl)c2)c2ccc(-c3ccc4ncnn4c3)cc21 (single isomer, unassigned) [Compound 8A, 7-([1,2,4]triazolo[1,5-a]pyridin-6-yl)-4-(3,4-dichlorophenyl)-1,2,3,4-tetrahydroisoquinoline-1,1,3,3,4-d5]
inhibition at 0.1 µM [1]: 93% | inhibition at 0.01 µM [2]: 29% | inhibition at 0.1 µM [2]: 86%

[2H]C1([2H])NCC(c2ccc(Cl)c(Cl)c2)c2ccc(-c3ccc4ncnn4c3)cc21 (single isomer, unassigned) [Compound 12A, 7-([1,2,4]triazolo[1,5-a]pyridin-6-yl)-4-(3,4-dichlorophenyl)-1,2,3,4-tetrahydroisoquinoline-1,1-d2]
inhibition at 0.01 µM [2]: 34% | inhibition at 0.1 µM [2]: 79%

[2H]C1([2H])NCc2cc(-c3ccc4ncnn4c3)ccc2C1([2H])c1ccc(Cl)c(Cl)c1 (single isomer, unassigned) [Compound 16B, 7-([1,2,4]triazolo[1,5-a]pyridin-6-yl)-4-(3,4-dichlorophenyl)-1,2,3,4-tetrahydroisoquinoline-3,3,4-d3]
inhibition at 0.1 µM [1]: 76% | inhibition at 0.01 µM [2]: 49% | inhibition at 0.1 µM [2]: 72%

CC(=O)N1CCc2c(c3ccc(-n4ccc(OCc5ccc(F)cn5)cc4=O)cc3n2C)C1 [1-(2-acetyl-5-methyl-2,3,4,5-tetrahydro-1H-pyrido[4,3-b]indol-7-yl)-4-((5-fluoropyridin-2-yl)methoxy)pyridin-2(1H)-one]
amount of metabolite comparing to parent compound Formula II [3]: very significant | contribution to the pharmacology of MCHR1 antagonism (MCHR1): does not contribute to the pharmacology of MCHR1 antagonism

CC(NC(C)(C)C)C(=O)c1cccc(Cl)c1 (stereo not shown) [Bupropion, bupropion]
Lowest Occupancy DAT (DAT; lowest reported): 14% (Bupropion)

COC(=O)C(c1ccccc1)C1CCCCN1 (stereo not shown) [Methylphenidate, methylphenidate]
Highest Occupancy DAT (DAT; highest reported): 74%

COc1ccc(C(CN(C)C)C2(O)CCCCC2)cc1 (stereo not shown) [Venlafaxine, venlafaxine]
NET occupancy (NET): 8-61%

CCOC[C@@H]1[C@@H](c2ccc(Cl)c(Cl)c2)C[C@@H]2CC[C@H]1N2C [tesofensine]
hyperphagia in patients with the appropriate plasma drug level (PWS patients; PWS patients): hyperphagia controlled completely | patients with plasma drug levels exceeding the safety levels who discontinued the treatment due to adverse events (PWS patients; PWS patients): 2/3 | efficacy after lowering the dosing for all patients (PWS patients; lowered dose): no efficacy
